# Data published in patent publication US20100316529A1, “Anti-Microbial Systems and Methods” (priority 2001, published 2010).
# How the values were obtained:
# Assay in all cases: EDTA salt dilution test, MIC/MBC
# Type in all cases: cell-based
# [1] = system: Ent. faeculm
# [2] = system: Kleb. ornitholytica
# [3] = system: Cornyeform amycolatum; details: Exhibit A1
# [4] = system: Kleb. oxytoca
# [5] = system: Coryneform strait/amy
# [6] = system: Steno. maltophilia
# [7] = system: S. simulans
# Method: (§1) Protocol one: Broth dilutions:
# (§2) Inoculate a 25 ml nutrient broth (Oxoid No2) in a sterile universal container with one of the following organisms; Pseudomonas aeruginosa, Proteus Mirabilis, E. coli, Klebsiella pneumoniae, Staph aureus, Coagulase negative staphylococci, Enterococcus faecalis or MRSA.
# (§3) Incubate the broth at 37° C. overnight.
# (§4) To make these concentrations put the EDTA needed for 10 mLs in only 9 mLs of broth in sterile universal containers, as this will be diluted further when the organisms are added.
# (§5) Dilute the overnight broth cultures to 10^7 organisms/mL using more sterile nutrient broth.
# (§6) Add 1 mL of this diluent to each of the EDTA series broths. This gives a final concentration of 10^6 organism/mL in the EDTA broths.
# (§7) Incubate for 18 hours at 37° C.
# (§8) Next day visually read the MIC's by observing the turbidity of the broths.
# (§9) Plate out 1 uL of each dilution onto fresh blood agar plate and spread using a sterile plastic spreader.
# (§10) Incubate overnight at 37° C.
# (§11) Next day read the MBC's by performing colony counts.
# [8] = system: S. epidermidis; details: two entries
# Method: as §1, §2, §3, §4, §5, §6, §7, §8, §9, §10, §11
# [9] = system: S. xylosus
# Method: as §1, §2, §3, §4, §5, §6, §7, §8, §9, §10, §11
# [10] = system: S. capitis; details: two entries
# Method: as §1, §2, §3, §4, §5, §6, §7, §8, §9, §10, §11
# [11] = system: MRSA; details: five entries
# Method: as §1, §2, §3, §4, §5, §6, §7, §8, §9, §10, §11
# [12] = system: Pseudomonas aeruginosa; details: two entries
# Method: as §1, §2, §3, §4, §5, §6, §7, §8, §9, §10, §11
# [13] = system: S. lentus
# Method: as §1, §2, §3, §4, §5, §6, §7, §8, §9, §10, §11
# [14] = system: E. coli; details: three entries, Exhibit A1
# Method: as §1, §2, §3, §4, §5, §6, §7, §8, §9, §10, §11
# [15] = system: Pseudomonas sp.
# Method: as §1, §2, §3, §4, §5, §6, §7, §8, §9, §10, §11
# [16] = system: Proteus mirabilis; details: two entries
# Method: as §1, §2, §3, §4, §5, §6, §7, §8, §9, §10, §11
# [17] = system: Kleb. pnemoniae; details: two entries
# Method: as §1, §2, §3, §4, §5, §6, §7, §8, §9, §10, §11
# [18] = system: S. aureus; details: five entries
# Method: as §1, §2, §3, §4, §5, §6, §7, §8, §9, §10, §11
# [19] = system: Ent. faecalis
# Method: as §1, §2, §3, §4, §5, §6, §7, §8, §9, §10, §11
# [20] = system: Proteus vulgaris
compound,measurement,setting,value
O=C([O-])CN(CCN(CC(=O)[O-])CC(=O)[O-])CC(=O)[O-].[Cu+2].[Na+].[Na+] [Cupric disodium EDTA],"MIC, minimum concentration required to inhibit growth","[1]; Ent. faecuim, Exhibit A2",<500 µg/mL
same,"MBC, minimum concentration required to kill an entire population","[1]; Ent. faeculm, Exhibit A1",<500 µg/mL
same,"MBC, minimum concentration required to kill an entire population",[2]; Exhibit A1,>30000 µg/mL
same,"MIC, minimum concentration required to inhibit growth",[2]; Exhibit A2,>30000 µg/mL
same,"MBC, minimum concentration required to kill an entire population",[3],<500 µg/mL
same,"MBC, minimum concentration required to kill an entire population",[4]; Exhibit A1,>30000 µg/mL
same,"MIC, minimum concentration required to inhibit growth",[4]; Exhibit A2,>30000 µg/mL
same,"MBC, minimum concentration required to kill an entire population",[5]; Exhibit A1,<500 µg/mL
same,"MIC, minimum concentration required to inhibit growth",[5]; Exhibit A2,<500 µg/mL
same,"MBC, minimum concentration required to kill an entire population",[6]; Exhibit A1,>30000 µg/mL
same,"MIC, minimum concentration required to inhibit growth",[6]; Exhibit A2,6000 µg/mL
same,"MBC, minimum concentration required to kill an entire population",[7]; Exhibit A1,<500 µg/mL
same,"MIC, minimum concentration required to inhibit growth",[7]; Exhibit A2,<500 µg/mL
same,"MBC, minimum concentration required to kill an entire population",[8]; Exhibit A1,<500 µg/mL
same,"MIC, minimum concentration required to inhibit growth",[8]; Exhibit A2,<500 µg/mL
same,"MBC, minimum concentration required to kill an entire population",[9]; Exhibit A1,<500 µg/mL
same,"MIC, minimum concentration required to inhibit growth",[9]; Exhibit A2,<500 µg/mL
same,"MBC, minimum concentration required to kill an entire population",[10]; Exhibit A1,<500 µg/mL
same,"MIC, minimum concentration required to inhibit growth",[10]; Exhibit A2,<500 µg/mL
same,"MBC, minimum concentration required to kill an entire population",[11]; Exhibit A1,<500 µg/mL
same,"MIC, minimum concentration required to inhibit growth",[11]; Exhibit A2,<500 µg/mL
same,"MBC, minimum concentration required to kill an entire population",[12]; Exhibit A1,>30000 µg/mL
same,"MIC, minimum concentration required to inhibit growth",[12]; Exhibit A2,>30000 µg/mL
same,"MBC, minimum concentration required to kill an entire population",[13]; Exhibit A1,<500 µg/mL
same,"MIC, minimum concentration required to inhibit growth",[13]; Exhibit A2,<500 µg/mL
same,"MBC, minimum concentration required to kill an entire population",[14],>30000 µg/mL
same,"MBC, minimum concentration required to kill an entire population",[15]; Exhibit A1,>30000 µg/mL
same,"MIC, minimum concentration required to inhibit growth",[15]; Exhibit A2,>30000 µg/mL
same,"MBC, minimum concentration required to kill an entire population",[16]; Exhibit A1,>30000 µg/mL
same,"MIC, minimum concentration required to inhibit growth",[16]; Exhibit A2,6000 µg/mL
same,"MBC, minimum concentration required to kill an entire population",[17]; Exhibit A1,>30000 µg/mL
same,"MIC, minimum concentration required to inhibit growth",[17]; Exhibit A2,>30000 µg/mL
same,"MBC, minimum concentration required to kill an entire population",[18]; Exhibit A1,<500 µg/mL
same,"MIC, minimum concentration required to inhibit growth",[18]; Exhibit A2,<500 µg/mL
same,"MBC, minimum concentration required to kill an entire population",[19]; Exhibit A1,<500 µg/mL
same,"MIC, minimum concentration required to inhibit growth",[19]; Exhibit A2,<500 µg/mL
same,"MBC, minimum concentration required to kill an entire population",[20]; Exhibit A1,>30000 µg/mL
same,"MIC, minimum concentration required to inhibit growth",[20]; Exhibit A2,>30000 µg/mL
